Measured values from paper PMC4289024 (Journal of Medicinal Chemistry, 2014).

Tests used:
[1] = system: 293T cells; test: Western blot of 293T cells treated with inhibitors; type: cell-based, human
[2] = system: 293T cells; settings: 30 min; cited from earlier work

Compound | phosphorylation of AKT (pAKT) ([1]; 3 and 16 h of treatment) | phosphorylation of S6 (pS6 levels) ([1]; 3 and 16 h of treatment) | S6 phosphorylation [2] | phosphorylation of S6 ([1]; 3 h time point) | phosphorylation of S6 ([1]; 16 h time point)
COc1ccc(-c2ccc3c(N4CCOC[C@@H]4C)nc(N4CCOC[C@@H]4C)nc3n2)cc1CO [AZD8055] | decrease in pAKT at T308 and S473 | significant decrease in pS6 levels at both the S235 and S240 sites | – | – | –
CCc1cncnc1N1CCN(Cc2nc3ccc(C(F)(F)F)cc3[nH]2)CC1 [PF-4708671] | no effect on the phosphorylation of AKT | – | significant reduction in S6 phosphorylation | modest decrease in phosphorylation of S6 | returned to near basal levels
